Source: ChEMBL document CHEMBL1146741, “Cycloalkyl[b][1,4]benzodiazepinoindoles are agonists at the human 5-HT2C receptor” (Bioorg Med Chem Lett, 2004)
pEC50, pKi: −log10 of the molar value.

Columns and labels:
[1] = biological target: T1, 5-hydroxytryptamine receptor 2C (Homo sapiens, UniProt P28335); test: Agonistic binding affinity against human 5-hydroxytryptamine 2C receptor in CHO cells using [125I]- DOI; assay type: cell-based
T1 sequence (P28335 whole entry): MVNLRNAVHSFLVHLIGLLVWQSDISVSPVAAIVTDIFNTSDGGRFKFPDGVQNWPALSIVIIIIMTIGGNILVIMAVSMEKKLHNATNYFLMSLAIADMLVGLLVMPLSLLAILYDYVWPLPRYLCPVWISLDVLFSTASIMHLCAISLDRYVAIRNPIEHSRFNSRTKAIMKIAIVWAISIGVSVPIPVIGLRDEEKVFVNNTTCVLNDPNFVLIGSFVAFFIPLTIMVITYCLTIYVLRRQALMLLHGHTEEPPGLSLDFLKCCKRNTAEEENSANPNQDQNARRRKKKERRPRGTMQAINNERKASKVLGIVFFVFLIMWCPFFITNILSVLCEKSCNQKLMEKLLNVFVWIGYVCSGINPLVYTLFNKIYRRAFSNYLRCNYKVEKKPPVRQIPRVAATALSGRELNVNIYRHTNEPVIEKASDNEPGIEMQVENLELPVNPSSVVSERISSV

[2] = biological target: T2, 5-hydroxytryptamine receptor 2A (Homo sapiens, UniProt P28223); test: Agonistic binding affinity against human 5-hydroxytryptamine 2A receptor in CHO cells using [125I]-DOI
T2 sequence (P28223 whole entry): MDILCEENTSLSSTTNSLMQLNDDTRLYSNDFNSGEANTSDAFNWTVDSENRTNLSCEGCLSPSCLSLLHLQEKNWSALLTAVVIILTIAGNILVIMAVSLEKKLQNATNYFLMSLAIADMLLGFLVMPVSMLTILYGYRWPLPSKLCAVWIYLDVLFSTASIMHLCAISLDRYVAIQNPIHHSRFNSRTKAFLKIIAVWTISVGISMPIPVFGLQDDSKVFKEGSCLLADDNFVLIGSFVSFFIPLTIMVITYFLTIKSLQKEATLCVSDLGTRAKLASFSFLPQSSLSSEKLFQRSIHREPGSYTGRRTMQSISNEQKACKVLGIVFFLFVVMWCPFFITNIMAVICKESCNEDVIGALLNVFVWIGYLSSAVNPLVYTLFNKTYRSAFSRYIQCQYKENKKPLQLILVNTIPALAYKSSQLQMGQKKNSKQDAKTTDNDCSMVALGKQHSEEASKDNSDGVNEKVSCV

[3] = biological target: T3, 5-hydroxytryptamine receptor 2C (Homo sapiens) (UniProt P28335); test: Agonistic binding affinity against human 5-hydroxytryptamine 2C receptor in CHO cells using [125I]- DOI radioligand, expressed as Emax; assay type: cell-based
T3 sequence (whole entry): T1 sequence (P28335 whole entry)

[4] = biological target: T2, 5-hydroxytryptamine receptor 2A; test: Agonistic binding affinity against human 5-hydroxytryptamine 2A receptor in CHO cells using [125I]DOI radioligand
[5] = biological target: T3, 5-hydroxytryptamine receptor 2C (Homo sapiens); test: Agonistic binding efficacy against human 5-hydroxytryptamine 2C receptor in CHO cells using [125I]- DOI radioligand; assay type: cell-based
[6] = biological target: T4, 5-hydroxytryptamine receptor 1A (Homo sapiens) (UniProt P08908); test: Percent binding affinity against 5-hydroxytryptamine 1A receptor; settings: concentration not given here
T4 sequence (whole entry): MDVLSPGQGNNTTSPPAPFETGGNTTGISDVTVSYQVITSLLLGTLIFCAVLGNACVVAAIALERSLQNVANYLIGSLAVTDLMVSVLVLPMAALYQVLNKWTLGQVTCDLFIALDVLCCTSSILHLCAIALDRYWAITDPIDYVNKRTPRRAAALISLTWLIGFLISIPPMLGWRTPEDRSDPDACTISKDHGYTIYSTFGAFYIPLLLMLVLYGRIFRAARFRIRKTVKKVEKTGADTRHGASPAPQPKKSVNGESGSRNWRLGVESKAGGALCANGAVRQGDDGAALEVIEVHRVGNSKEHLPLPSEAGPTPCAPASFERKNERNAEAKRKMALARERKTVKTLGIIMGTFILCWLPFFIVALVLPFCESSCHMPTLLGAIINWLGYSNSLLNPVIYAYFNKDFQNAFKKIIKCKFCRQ

[7] = biological target: D(3) dopamine receptor (Homo sapiens) (UniProt P35462); test: Percent binding affinity against dopamine D3 receptor; settings: concentration not given here
D(3) dopamine receptor (Homo sapiens), sequence (P35462 whole entry, looked up): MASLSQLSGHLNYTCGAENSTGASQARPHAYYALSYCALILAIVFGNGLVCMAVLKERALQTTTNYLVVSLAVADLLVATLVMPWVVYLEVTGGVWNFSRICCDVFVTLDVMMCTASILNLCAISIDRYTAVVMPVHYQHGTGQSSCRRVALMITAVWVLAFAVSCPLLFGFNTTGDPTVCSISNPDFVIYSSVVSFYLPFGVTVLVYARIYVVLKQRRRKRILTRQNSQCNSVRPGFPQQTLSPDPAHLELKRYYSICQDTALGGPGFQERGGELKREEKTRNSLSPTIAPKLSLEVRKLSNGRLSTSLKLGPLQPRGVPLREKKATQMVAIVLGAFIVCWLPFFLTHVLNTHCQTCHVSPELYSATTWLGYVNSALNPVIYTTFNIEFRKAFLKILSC

[8] = biological target: D(4) dopamine receptor (Homo sapiens) (UniProt P21917); test: Percent binding affinity against dopamine receptor D4; settings: concentration not given here
D(4) dopamine receptor (Homo sapiens), sequence (P21917 whole entry, looked up): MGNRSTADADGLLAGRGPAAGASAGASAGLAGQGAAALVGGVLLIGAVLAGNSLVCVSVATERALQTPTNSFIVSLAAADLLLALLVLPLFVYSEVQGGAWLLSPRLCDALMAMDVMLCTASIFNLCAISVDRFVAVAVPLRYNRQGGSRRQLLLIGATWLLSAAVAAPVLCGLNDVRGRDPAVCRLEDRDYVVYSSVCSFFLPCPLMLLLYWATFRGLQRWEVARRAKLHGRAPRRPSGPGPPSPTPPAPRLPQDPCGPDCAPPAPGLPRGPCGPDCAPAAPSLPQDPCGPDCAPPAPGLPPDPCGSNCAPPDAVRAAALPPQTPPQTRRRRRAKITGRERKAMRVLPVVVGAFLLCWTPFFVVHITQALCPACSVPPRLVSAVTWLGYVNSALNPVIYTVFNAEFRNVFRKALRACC

[9] = biological target: T2, 5-hydroxytryptamine receptor 2A; test: Effective concentration against human 5-hydroxytryptamine 2A receptor in CHO cells by stimulation of [3H]inositol monophosphate production

CC1(C)Cc2c(c3cccc4c3n2CCNC4)C(C)(C)C1
pKi [1]: 7.10 | pKi [2]: 6.82

c1cc2c3c(c1)c1c(n3CCNC2)CCC1
Emax [3]: 90% | pKi [4]: 6.04

Cc1cc2c3c(c1)c1c(n3CCNC2)CCC1
pKi [2]: 5.60

Cc1cc2c3c(c1)c1c(n3CCNC2)CCCC1
pKi [2]: 5.91

Fc1ccc2c3c1c1c(n3CCNC2)CCCC1
pKi [1]: 6.95

c1cc2c3c(c1)c1c(n3CCNC2)CCCCC1
Efficacy [5]: 73% | pKi [2]: 6.70

c1cc2c3c(c1)c1c(n3CCNC2)CCCCCC1
inhibition [6]: 4% | Efficacy [5]: 102% | Emax [3]: 102% | inhibition [7]: 37% | inhibition [8]: 47% | pKi [2]: 7.44 | pEC50 [9]: 4.19

C[C@@H]1Cn2c3c(c4cccc(c42)CN1)CCCC3
pKi [2]: 5.81
